Results from patent US20110313672A1, “CELLULAR ANTIOXIDANT ACTIVITY (CAA) ASSAY” (CORNELL UNIVERSITY, priority 2007, published 2011).
Values joined by “and” are separate entries in the source; they are usually repeats but may differ in a detail not shown here. Equal entries are not always repeated. “Also recorded” adds a separate entry of the source. Where two headings read alike, the source gives them in different places.

Key:
[1] = system: HepG2 cells; test: Cellular antioxidant activity (CAA) assay: inhibition of peroxyl radical-induced DCFH oxidation; assay type: cell-based, human; settings: for CAA value: Example 1, pure compounds, EC50 converted to quercetin equivalents
Experimental: Cells (e.g., human hepatocellular carcinoma cells; HepG2) are seeded at a density of e.g., 6×10^4/well on a 96-well microplate in 100 μL growth medium/well. It is preferred that only the inside wells of e.g., a 96-well microplate are used for the assay, since the outer wells have increased variation compared to that of the inner wells. Twenty-four hours after seeding the growth medium is removed and the wells are washed with PBS. Triplicate wells are treated for 1 h with 100 μL of a test compound (e.g., pure phytochemical compounds or fruit extracts) plus 25 μM DCFH-DA dissolved in treatment medium.
600 μM ABAP is then applied to the cells in 100 μL HBSS and the 96-well microplate is placed into a plate reader e.g., Fluoroskan Ascent FL plate-reader (ThermoLabsystems, Franklin, Mass.) at 37° C. Emission at 538 nm is measured with excitation at 485 nm, for example every 5 min for 1 h. Each plate should include triplicate control and blank wells: control wells contain cells treated with DCFH-DA and oxidant; blank wells contain cells treated with dye and HBSS without oxidant.
A test compound is assayed in multiple wells of e.g., a 96-well cell culture plate. Some wells are washed with 100 μL of phosphate-buffered saline (PBS) prior to the addition of ABAP, while other wells were not washed prior to the addition of ABAP. It was noted that the measured antioxidant activity of some fruit extracts (e.g., blueberries) was different when a PBS wash was used compared to when there was no PBS wash (see Table 2; FIGS. 3 and 4). This is likely due to non-specific binding of certain antioxidant compounds to the outer membrane, or a reduced uptake of the compound, thus the ratio of antioxidant activity values obtained with a PBS wash compared to a non-PBS wash indicates the bioavailability of the test compound. In order to accurately measure the intracellular antioxidant activity of a test compound, a PBS wash prior to the addition of a peroxyl initiator (e.g, ABAP) is necessary. The values obtained for cells assayed using a PBS wash should be compared to values obtained for the same cells assayed without a PBS wash. One of skill in the art can plan and perform experiments on a test compound in the presence and absence of a PBS wash, in order to accurately assess the intracellular antioxidant capacity of the test compound.
After blank subtraction from the fluorescence readings, the area under the curve of fluorescence versus time is integrated to calculate the cellular antioxidant activity (CAA) value at each concentration of pure phytochemical compound or fruit extract as follows:
where ∫SA is the integrated area under the sample fluorescence versus time curve and ∫CA is the integrated area from the control curve. The median effective dose (EC50) was determined for the pure phytochemical compounds and fruit extracts from the median effect plot of log (fa/fu) vs. log (dose), where fa is the fraction affected and fu is the fraction unaffected by the treatment. To quantify intra-experimental variation, the EC50 values are stated as mean±SD for triplicate sets of data obtained from the same experiment. Inter-experimental variation is obtained for some representative pure phytochemical compounds and fruit extracts by averaging the fluorescence values from triplicate wells in each trial to obtain one EC50 value per experiment and calculating the mean±SD for at least four trials. In each experiment, a standard is used, for example quecetin, thus permitting the cellular antioxidant activities for a test compounds to be expressed as μmol quercetin equivalents (QE)/100 μmol compound. Fruit extracts are expressed as μmol QE/100 g fruit. In order to compare the antioxidant quality of different fruits, cellular antioxidant activity (CAA) is also calculated as μmol QE/100 μmol total phenolics.
Human hepatocellular carcinoma HepG2 cells were seeded at a density of 6×10^4/well on a 96-well microplate in 100 μL growth medium/well. […]

[2] = Oxygen radical absorbance capacity (ORAC) assay; settings: Example 3, flavonoids, mean ± SD, n ≧ 3
Experimental: The peroxyl radical scavenging efficacy of selected fruits was measured using the ORAC assay (Prior, R. L., et al (2003) J. Agric. Food Chem. 51:3273-3279). Briefly, 20 μL of blank, Trolox standard, or fruit extracts in 75 mM potassium phosphate buffer, pH 7.4 (working buffer), was added to triplicate wells in a black, clear-bottom, 96-well microplate. The triplicate samples were distributed throughout the microplate and were not placed side-by-side, to avoid any effects on readings due to location. In addition, no outside wells were used, as use of those wells results in greater variation. A volume of 200 μL of 0.96 μM fluorescein in working buffer was added to each well and incubated at 37° C. for 20 min, with intermittent shaking, before the addition of 20 μL of freshly prepared 119 mM ABAP in working buffer using a 12-channel pipetter. The microplate was immediately inserted into a Fluoroskan Ascent FL plate reader (ThermoLabsystems) at 37° C. The decay of fluorescence at 538 nm was measured with excitation at 485 nm every 4.5 min for 2.5 h. The areas under the fluorescence versus time curve for the samples minus the area under the curve for the blank were calculated and compared to a standard curve of the areas under the curve for 6.25, 12.5, 25, and 50 μM Trolox standards minus the area under the curve for blank. ORAC values were expressed as mean micromoles of Trolox equivalents (TE) per 100 g of fruit±SD for triplicate data from one experiment.
ORAC measurements were performed as described herein in Example 2.

[3] = Example 3, Table 7, no PBS wash
[4] = Homo sapiens, HepG2, Example 3, Table 7, PBS wash, flavonoids, mean ± SD, n=3, read-out: EC50
[5] = Homo sapiens, HepG2, Example 3, Table 7, no PBS wash, flavonoids, mean ± SD, n=3, read-out: EC50
[6] = Homo sapiens, HepG2, Example 1, Table 1, PBS wash, pure phytochemical compounds, mean ± SD, n=3, read-out: EC50 for inhibition of peroxyl radical-induced DCFH oxidation
[7] = Homo sapiens, HepG2, Example 1, Table 1, no PBS wash, pure phytochemical compounds, mean ± SD, n=3, read-out: EC50 for inhibition of peroxyl radical-induced DCFH oxidation
[8] = CAA assay, either protocol or protocol not specified
[9] = Example 3, Table 7, PBS wash, flavonoids, mean ± SD, n=3
[10] = Example 3, Table 7, no PBS wash, flavonoids, mean ± SD, n=3

SMILES	EC50 [1, 4]	EC50 [1, 5]	EC50 [1, 6]	EC50 [1, 7]	CAA ([1]; Example 3, Table 7, PBS wash)	CAA [1, 3]	ORAC [2]	cellular antioxidant activity, result in words [1, 8]	also measured
O=C(O[C@@H]1Cc2c(O)cc(O)cc2O[C@@H]1c1ccc(O)c(O)c1)c1cc(O)c(O)c(O)c1 [ECG, (−)-epicatechin gallate]	25.6 ± 1.8 µM	14.2 ± 0.4 µM	–	–	31.9 ± 2.2 μmol of QE/100 μmol	62.1 ± 1.9 μmol of QE/100 μmol	7.71 ± 1.57 cde μmol of TE/μmol	–	–
Oc1cc(O)c2c(c1)O[C@H](c1cc(O)c(O)c(O)c1)[C@H](O)C2 [EGC, (−)-epigallocatechin]	> 100 µM	74.2 ± 12.9 µM	–	–	–	12.1 ± 2.2 μmol of QE/100 μmol	3.11±0.73 μmol of TE/μmol and 3.11 ± 0.73 cde μmol of TE/μmol	–	cellular antioxidant activity, result in words ([1]; PBS wash protocol): low activity at the concentrations tested
O=c1cc(-c2ccc(O)c(O)c2)oc2cc(O)cc(O)c12 [Luteolin, luteolin]	27.7 ± 2 µM	23.8 µM	23.1 ± 1 µM	26.1 ± 0.26 µM	29.5 ± 2.1 μmol of QE/100 μmol	37.1 ± 0.0 μmol of QE/100 μmol	8.55 ± 0.85 cde μmol of TE/μmol	–	CAA value ([1]; PBS wash): 22.2 ± 1 µmol QE/100 µmol; CAA value ([1]; no PBS wash): 22.6±0.2 μmol QE/100 μmol
O=c1c(O)c(-c2cc(O)c(O)c(O)c2)oc2cc(O)cc(O)c12 [Myricetin, myricetin]	70.7 ± 4.2 µM	31.1 ± 1 µM	15.4 ± 0.5 µM	16.1 ± 1.7 µM	11.5 ± 0.7 μmol of QE/100 μmol	28.4 ± 0.9 μmol of QE/100 μmol	4.55±0.50 μmol of TE/μmol and 4.55 ± 0.50 fgh μmol of TE/μmol	–	CAA value ([1]; PBS wash): 33.1 ± 1 µmol QE/100 µmol; CAA value ([1]; no PBS wash): 36.8±3.8 μmol QE/100 μmol; EC50 ([1]; Homo sapiens, HepG2, Example 3, text, no PBS wash, read-out: EC50): 31.1 ± 1 µM
O=c1c(O[C@@H]2O[C@H](CO)[C@@H](O)[C@H](O)[C@H]2O)c(-c2ccc(O)c(O)c2)oc2cc(O)cc(O)c12 [Q-3-G, quercetin-3-β-D-glucoside]	–	–	–	–	6.6 ± 0.1 μmol of QE/100 μmol	7.7 ± 0.1 μmol of QE/100 μmol	8.11 ± 1.86 cde μmol of TE/μmol	low amount of activity; also recorded: low or no cellular antioxidant activity	EC50 ([1]; Example 3, Table 7, PBS wash, flavonoids, mean ± SD, n=3, read-out: EC50): 122 ± 1 µM; EC50 ([1]; Example 3, Table 7, no PBS wash, flavonoids, mean ± SD, n=3, read-out: EC50): 115 ± 2 µM
O=C1c2c(O)cc(O)cc2O[C@H](c2ccc(O)c(O)c2)[C@H]1O [Taxifolin, taxifolin]	> 200 µM	> 200 µM	> 150 µM	> 150 µM	–	–	9.74 ± 1.20 bcd μmol of TE/μmol	low or no cellular antioxidant activity; also recorded: low CAA	cellular antioxidant activity, result in words ([1]; PBS wash protocol): low activity at the concentrations tested; cellular antioxidant activity, result in words ([1]; no PBS wash protocol): activity only at doses much higher than their cytotoxic concentrations; also recorded: low, but unquantifiable, activity; also recorded: low but unquantifiable activity
O=c1c(-c2ccc(O)cc2)coc2cc(O)cc(O)c12 [genistein]	–	–	–	–	–	–	13.4±2.8 μmol of TE/μmol and 13.4 ± 2.8 a μmol of TE/μmol	no cellular antioxidant activity; also recorded: no CAA	cellular antioxidant activity, result in words ([1]; CAA assay, either protocol or protocol not specified, listed as Genistein): no activity; EC50 [1, 9]: no activity; EC50 [1, 10]: no activity
O=C1C[C@@H](c2ccc(O)cc2)Oc2cc(O)cc(O)c21 [naringenin]	–	–	–	–	–	–	9.23 ± 2.79 bcd μmol of TE/μmol	no activity; also recorded: no CAA	EC50 [1, 9]: no activity; EC50 [1, 10]: no activity; cellular antioxidant activity, result in words ([1]; no PBS wash protocol): none

Second part, led by results:

EC50 [1, 4]	EC50 [1, 5]	EC50 [1, 6]	EC50 [1, 7]	SMILES	CAA ([1]; Example 3, Table 7, PBS wash)	CAA [1, 3]	ORAC [2]	cellular antioxidant activity, result in words [1, 8]	also measured
9.57 ± 0.27 µM	11.9 ± 0.8 µM	6.31 ± 0.21 µM	7.85 ± 0.51 µM	O=c1c(O)c(-c2ccc(O)cc2)oc2cc(O)cc(O)c12 [Kaempferol, kaempferol]	85.1 ± 2.4 μmol of QE/100 μmol	74.6 ± 4.8 μmol of QE/100 μmol	7.19 ± 1.29 def μmol of TE/μmol	–	CAA value ([1]; PBS wash): 81.1 ± 2.7 µmol QE/100 µmol; CAA value ([1]; no PBS wash): 75.3±4.7 μmol QE/100 μmol
7.71 ± 0.26 µM	8.93 ± 0.44 µM	–	5.92 ± 0.07 µM	O=c1c(O)c(-c2ccc(O)c(O)c2)oc2cc(O)cc(O)c12 [Quercetin, quercetin]	105.7 ± 3.7 μmol of QE/100 μmol	99.1 ± 4.8 μmol of QE/100 μmol	8.04 ± 2.37 cde μmol of TE/μmol	–	EC50 ([1]; Example 1, Table 1, PBS wash, pure phytochemical compounds, mean ± SD, n=3, read-out: EC50 for inhibition of peroxyl radical-induced DCFH oxidation): 5.09 ± 0.19 µM; EC50 ([1]; Homo sapiens, HepG2, Table 2, no PBS wash, mean ± SD over the trials, read-out: Interexperimental EC50): 5.89 ± 0.36 µM; EC50 ([1]; Homo sapiens, HepG2, Table 2, no PBS wash, one line per trial (trials 1-5), n=3, read-out: Intraexperimental EC50): 6.07 ± 0.25 µM; EC50 ([1]; Homo sapiens, HepG2, Table 3, PBS wash, mean ± SD over the trials, read-out: Interexperimental EC50): 5.12 ± 0.58 µM; EC50 ([1]; Homo sapiens, HepG2, Table 3, PBS wash, one line per trial (trials 1-5), n=3, read-out: Intraexperimental EC50): 4.48 ± 0.18 µM
7.56 ± 0.46 µM	13.3 ± 0.2 µM	–	–	O=c1c(O)c(-c2ccccc2)oc2cc(O)cc(O)c12 [galangin]	107.8 ± 6.4 μmol of QE/100 μmol	66.3 ± 1.1 μmol of QE/100 μmol	2.63 ± 1.31 gh μmol of TE/μmol	–	ORAC ([2]; listed as Galangin): 2.63±1.31 μmol of TE/μmol
43.9 ± 4.3 µM	27.6 ± 1.8 µM	–	–	O=c1c(O)c(-c2ccc(O)cc2O)oc2cc(O)cc(O)c12 [morin]	18.6 ± 18 μmol of QE/100 μmol	32.1 ± 2.1 μmol of QE/100 μmol	6.12±1.95 μmol of TE/μmol and 6.12 ± 1.95 efg μmol of TE/μmol	–	EC50 ([1]; Homo sapiens, HepG2, Example 3, text b252, PBS wash, read-out: EC50): 43.9 ± 0.43 µM; EC50 ([1]; Homo sapiens, HepG2, Example 3, text b252, no PBS wash, read-out: EC50): 27.6 ± 1.8 µM
